What was measured:
[1] = Stability as a function of buffer strength (1 mg/mL, citrate pH 3.0); format: physicochemical; parameters: Assay: unit not given here; details: for Impurities: unit assumed
Description: A 10 mg/mL (XXXVI) solution in 100 mM citrate buffer at pH 3.0 and a 500 mM citrate buffer at pH 3.0 were prepared. Using these two stock solutions, (XXXVI) solutions at 1 mg/mL were prepared in citrate buffers of various concentrations in the range 10-250 mM, as shown in Table 12E.
Each of the above solutions was stored in 5 mL serum vials as ca. 2.5-3 mL aliquots (total of 7 aliquots). Two aliquots were stored at each of 40° C., 60° C. and 25° C. Aliquots stored at 25° C. served as controls to be evaluated if necessary. […]

[2] = tested on: midazolam-induced respiratory depression; assay: Benzodiazepine-induced respiratory depression (BIRD), midazolam, rat plethysmography; format: in vivo
Description: Compound (XXXVI) was dissolved in 20% hydroxypropyl-beta-cyclodextran in sterile water, and titrated to a pH of 4-8 using pH paper and NaOH or HCl, resulting in a clear, stable solution at a concentration of 1.5 mg/mL. Other compounds: morphine sulfate, supplied as 10 mg/mL solution by (Baxter, Inc) and midazolam, supplied as 5 mg/mL solution (Hospira, Inc.)
Male Sprague-Dawley rats (Harlan, Inc.), 250-350 g at time of dosing, surgically prepared by Harlan with jugular vein cannulas. 12 Chamber Plethysmography System with temperature/humidity compensation (Epstein et al., 1980, J. Apply Physiol. 49:1107-1115); From Buxco, Inc. (PLY 3223; Buxco, Inc, Wilmington, N.C., USA) Biosystem XA, software, v2.11.1. Customized 12 site automated infusion system (Harvard Apparatus; Instech, Inc)
Rat whole body plethysmography was used to evaluate and quantify minute ventilation and the pattern of breathing. A respiratory waveform was generated from the exchange of air between the animal and the chamber. This exchange induced changes in air volume that were measured with a pressure transducer, constituting the respiratory waveform. Atmospheric temperature and humidity were also measured using temperature and humidity probes which sampled chamber conditions. A compensation factor was then determined and applied to the respiratory waveform using a standardized algorithm (Epstein et al., 1980, J. Apply Physiol. 49:1107-1115) to compensate for respiratory conditioning, which was reported as the parameter COMP (see appendix).
All animals were acclimated to plethysmography chambers for at least 1 hour, or until animals were no longer restless (up to 2 hours) prior to data collection. Bolus intravenous (IV) dosing was administered at a rate of 5-10 seconds per dose, and catheters were flushed with 350 μL of sterile saline to be sure of complete drug delivery. […] All plethysmography data was recorded automatically by the Buxco equipment.
Respiratory data were collected on a breath-by-breath basis and averaged into 1 min time bins for data analysis. For each designated acquisition phase, which is the time between doses, percent change from pre-treatment baseline values were calculated for each cohort on multiple ventilatory parameters including respiratory frequency (f), tidal volume (TV), accumulated volume (AV), minute ventilation (MV), inspiratory time (Ti), expiratory time (Te), peak inspiratory flow (PIF), peak expiratory flow (PEF), relaxation time (RT), end inspiratory pause (EIP), end expiratory pause (EEP), delta volume (DV), expiratory flow at 50% TV (EF50), rejection index (Rinx), compensation (Comp), enhanced pause (Penh), pause (PAU), PEF rate (Rpef), relative humidity (RH), and atmospheric temperature (Temp). […]

`CCCNc1nc(NCCC)nc(N(C)OC)n1` [XXXV, N-(4,6-Bis-n-propylamino-[1,3,5]triazin-2-yl)-N,O-dimethyl-hydroxylamine] showed an Assay ([1]; 10 mM, 40° C. 1 wk) of 0.953, a pH ([1]; 10 mM, 40° C. 1 wk) of 3.26 and an Assay ([1]; 10 mM, 40° C. 2 wk) of 0.947. The pH ([1]; 10 mM, 40° C. 2 wk) was 3.21, the Assay ([1]; 10 mM, 60° C. 1 wk) was 0.953 and the pH ([1]; 10 mM, 60° C. 1 wk) was 3.3. It also gave an Impurities ([1]; 10 mM, 60° C. 1 wk) of 0.48%, an Assay ([1]; 10 mM, 60° C. 2 wk) of 0.956 and a pH ([1]; 10 mM, 60° C. 2 wk) of 3.2. For the same compound, the Impurities ([1]; 10 mM, 60° C. 2 wk) was 0.89%, the Assay ([1]; 10 mM, initial) was 0.971 and the pH ([1]; 10 mM, initial) was 3.16. It also gave an Assay ([1]; 20 mM, 40° C. 1 wk) of 0.965, a pH ([1]; 20 mM, 40° C. 1 wk) of 3.33 and an Impurities ([1]; 20 mM, 40° C. 1 wk) of 0.13%. It also gave an Assay ([1]; 20 mM, 40° C. 2 wk) of 0.966, a pH ([1]; 20 mM, 40° C. 2 wk) of 3.30 and an Assay ([1]; 20 mM, 60° C. 1 wk) of 0.943. The pH ([1]; 20 mM, 60° C. 1 wk) was 3.3, the Impurities ([1]; 20 mM, 60° C. 1 wk) was 0.58% and the Assay ([1]; 20 mM, 60° C. 2 wk) was 0.947. For the same compound, the pH ([1]; 20 mM, 60° C. 2 wk) was 3.3, the Impurities ([1]; 20 mM, 60° C. 2 wk) was 0.88% and the Assay ([1]; 20 mM, initial) was 1.01. For the same compound, the pH ([1]; 20 mM, initial) was 3.27, the Assay ([1]; 50 mM, 40° C. 1 wk) was 0.959 and the pH ([1]; 50 mM, 40° C. 1 wk) was 3.34. It also gave an Assay ([1]; 50 mM, 40° C. 2 wk) of 0.949, a pH ([1]; 50 mM, 40° C. 2 wk) of 3.29 and an Assay ([1]; 50 mM, 60° C. 1 wk) of 0.936. The pH ([1]; 50 mM, 60° C. 1 wk) was 3.3, the Impurities ([1]; 50 mM, 60° C. 1 wk) was 0.59% and the Assay ([1]; 50 mM, 60° C. 2 wk) was 0.943. It also gave a pH ([1]; 50 mM, 60° C. 2 wk) of 3.3, an Impurities ([1]; 50 mM, 60° C. 2 wk) of 0.87% and an Assay ([1]; 50 mM, initial) of 0.976. For the same compound, the pH ([1]; 50 mM, initial) was 3.28, the Assay ([1]; 100 mM, 40° C. 1 wk) was 0.964 and the pH ([1]; 100 mM, 40° C. 1 wk) was 3.32. For the same compound, the Impurities ([1]; 100 mM, 40° C. 1 wk) was 0.26%, the Assay ([1]; 100 mM, 40° C. 2 wk) was 0.956 and the pH ([1]; 100 mM, 40° C. 2 wk) was 3.29. For the same compound, the Impurities ([1]; 100 mM, 40° C. 2 wk) was 0.38%, the Assay ([1]; 100 mM, 60° C. 1 wk) was 0.962 and the pH ([1]; 100 mM, 60° C. 1 wk) was 3.3. It also gave an Impurities ([1]; 100 mM, 60° C. 1 wk) of 0.73%, an Assay ([1]; 100 mM, 60° C. 2 wk) of 0.946 and a pH ([1]; 100 mM, 60° C. 2 wk) of 3.2. For the same compound, the Impurities ([1]; 100 mM, 60° C. 2 wk) was 1.2%, the Assay ([1]; 100 mM, initial) was 0.962 and the pH ([1]; 100 mM, initial) was 3.30. For the same compound, the Assay ([1]; 250 mM, 40° C. 1 wk) was 0.972, the pH ([1]; 250 mM, 40° C. 1 wk) was 3.25 and the Impurities ([1]; 250 mM, 40° C. 1 wk) was 0.21%. For the same compound, the Assay ([1]; 250 mM, 40° C. 2 wk) was 0.945, the pH ([1]; 250 mM, 40° C. 2 wk) was 3.22 and the Impurities ([1]; 250 mM, 40° C. 2 wk) was 0.56%. It also gave an Assay ([1]; 250 mM, 60° C. 1 wk) of 0.955, a pH ([1]; 250 mM, 60° C. 1 wk) of 3.2 and an Impurities ([1]; 250 mM, 60° C. 1 wk) of 1.03%. For the same compound, the Assay ([1]; 250 mM, 60° C. 2 wk) was 0.936, the pH ([1]; 250 mM, 60° C. 2 wk) was 3.2 and the Impurities ([1]; 250 mM, 60° C. 2 wk) was 1.8%. The Assay ([1]; 250 mM, initial) was 0.947, the pH ([1]; 250 mM, initial) was 3.21 and the “effect of buffer strength on impurity levels” value ([1]; 40° C., buffer concentration relevant to the formulation (ca. 10-50 mM)) was “no effect of buffer strength at 40 °C”.
With `CCCNc1nc(NCCC)nc(N(C)OC)n1.O=S(=O)(O)O` [XXXVI, N-(4,6-Bis-n-propylamino-[1,3,5]triazin-2-yl)-N,O-dimethyl-hydroxylamine hydrogen sulfate] the “effect on f, Ti, RT, EIP, dv, EF50, Rinx, Comp, Penh, PAU, Rpef, RH and Temp” value ([2]; 0.1 mg/kg/min infusion 30 min) was “had no obvious effect”, the “effects of midazolam on MV, TV, AV, Te, PIF, PEF and EEP” value ([2]; 0.1 mg/kg/min infusion 30 min) was “had an effect to reverse the effects of midazolam” and the “reversal of the BIRD induced decrease in MV” value ([2]; 0.1 mg/kg/min infusion, end of infusion period (t=38)) was 100. For the same compound, the adverse behavioral effects ([2]; rats, doses tested) was “no adverse behavioral effects observed”.

Source: patent US9162992B2, “Compounds and compositions for treatment of breathing control disorders or diseases” (GALLEON PHARMACEUTICALS, INC., priority 2010, dated 2015)
